Activity calls are given as the source filed them. No rule for the calls is given here.

This assay deals with MCF-7/NOD2 cells, MDP-induced IL-8 secretion. Description: NOD2 pathway IL-8 secretion inhibitors – MCF-7/NOD2 cells, MDP stimulus, SAR follow-up (AID 2260).
On to `Nc1nc2ccccc2n1S(=O)(=O)c1ccccc1`, for which the IC50 is > 5 µM (inactive).

On to `O=C(O)c1c(NC(=O)N2CCOCC2)sc2c1CCCC2`, for which the IC50 was > 25 µM (inactive).

With `Nc1nc2ccccc2n1S(=O)(=O)c1ccc([N+](=O)[O-])cc1`, the IC50 was > 5 µM (inactive).

On to `Cc1ccc(S(=O)(=O)n2c(N)nc3cc(C)c(C)cc32)cc1`, for which the IC50 was > 5 µM (inactive).

As to `COc1ccc(S(=O)(=O)n2c(N)nc3ccccc32)cc1`, the IC50 was > 5 µM (inactive).

With `Cc1ccc(S(=O)(=O)n2c(N)nc3ccccc32)cc1`, the IC50 was > 25 µM (inactive).

The term IC50 denotes the point on the concentration scale where inhibition reaches its midpoint.

The record behind these values is PubChem BioAssay AID2260 (Sanford-Burnham Center for Chemical Genomics, 2010).
